From publication PMC7957578, “N-(1,3,4-Oxadiazol-2-yl)Benzamides as Antibacterial Agents against Neisseria gonorrhoeae” (International Journal of Molecular Sciences, 2021) come the findings set out here.

Converted amounts (≈) assume the structure as drawn. Read-outs that look alike come from different tables or passages of the source.

Assay [1] has as its system E. coli BW25113 (wild-type strain). Briefly: MIC/MBC (CLSI broth microdilution) against E. coli BW25113 wild type. The format is cell-based, Escherichia coli. Particulars: E. coli BW25113 wild-type strain; for MBC: read-out: MBC. The procedure: (§1) The minimum inhibitory concentrations (MICs) of the tested compounds and control drugs, linezolid, vancomycin, and gentamicin, were determined using the broth microdilution method according to the guidelines outlined by the Clinical and Laboratory Standards Institute (CLSI) against clinically relevant bacterial (Staphylococcus aureus, MRSA, Escherichia coli, Enterococcus faecalis and Enterococcus faecium strains. S. aureus, MRSA, E. coli, Enterococcus faecalis and Enterococcus faecium were grown aerobically overnight on tryptone soy agar (TSA) plates at 37° C. Afterwards, a bacterial solution equivalent to 0.5 McFarland standard was prepared and diluted in cation-adjusted Mueller–Hinton broth (CAMHB) (for S. aureus, MRSA, and E. coli) to achieve a bacterial concentration of about 5 × 10^5 CFU/mL. Enterococcus faecalis and Enterococcus faecium 0.5 McFarland standard solution was diluted in tryptone soy broth (TSB) to achieve a bacterial concentration of about 5 × 10^5 CFU/mL. Compounds and control drugs were added in the first row of 96-well plates and serially diluted with the corresponding media containing bacteria. Plates were then incubated as previously described. […] The minimum bactericidal concentration (MBC) was tested by spotting 4 µL from wells with no growth onto TSA plates. Plates were incubated at 37 ° C for at least 18 h before recording the MBC. The MBC was categorized as the lowest concentration that reduced bacterial growth by 99.9% [45, 46, 47].
Background: In broth dilution the organism is exposed to a series of concentrations in liquid medium.

Assay [2] concerns E. coli JW55031 (TolC Mutant). Briefly: MIC/MBC (CLSI broth microdilution) against E. coli TolC mutant. The format is cell-based. The note with it: Escherichia coli. The procedure: as §1
Assay [3] has as its system S. aureus ATCC 25923. Briefly: MIC/MBC (CLSI broth microdilution) against S. aureus ATCC 25923. It counts as cell-based. Particulars: Staphylococcus aureus, ATCC25923, S. aureus ATCC 25923. The procedure:
as §1

For assay [4], the system named is N. gonorrhoeae 194. Briefly: MIC/MBC against N. gonorrhoeae clinical isolate 194. It counts as cell-based. Particulars: Neisseria gonorrhoeae. The procedure: (§2) Briefly, bacteria were grown overnight on chocolate agar II at 37° C in the presence of 5% CO2. Afterwards, a bacterial suspension equivalent to 1.0 McFarland standard was prepared and diluted in brucella broth supplemented with yeast extract, neopeptone, hematin, pyridoxal, and NAD. Test agents were added in the first row of the 96-well plates and serially diluted along the plates. Plates were then incubated at 37° C in the presence of 5% CO2 for 24 h. […] Plates were then incubated at 37 ° C in the presence of 5% CO2 for 24 h. The MBC was categorized as the lowest concentration that reduced bacterial growth by 99.9% [45, 46, 47].

For assay [5], the system named is panel drug-resistant pathogenic N. gonorrhoeae strains. Briefly: MIC/MBC against a panel of drug-resistant N. gonorrhoeae strains. The note with it: MBC the same as or one-fold higher than MIC. It counts as cell-based, Neisseria gonorrhoeae.
In assay [6] the test system is N. gonorrhoeae 166. Briefly: MIC/MBC against N. gonorrhoeae clinical isolate 166. It counts as cell-based. The note with it: Neisseria gonorrhoeae. Here is the method: as §2
Assay [7] concerns VRE. faecium ATCC 700221. Briefly: MIC/MBC (CLSI broth microdilution) against VRE faecium ATCC 700221. The format is cell-based. Particulars: Enterococcus, VRE faecium ATCC 700221. Here is the method:
as §1

The test system of assay [8] is N. gonorrhoeae. Briefly: MIC against N. gonorrhoeae in presence of fetal bovine serum. It counts as cell-based. The note with it: Neisseria gonorrhoeae, 24 h.
In assay [9] the test system is VRE. faecalis ATCC 51299. Briefly: MIC/MBC (CLSI broth microdilution) against VRE faecalis ATCC 51299. The format is cell-based. The note with it: Enterococcus, VRE faecalis ATCC 51299. The procedure: as §1
For assay [10], the system named is N. gonorrhoeae 200. Briefly: MIC/MBC against N. gonorrhoeae clinical isolate 200. It counts as cell-based. The note with it: Neisseria gonorrhoeae. The procedure:
as §2

In assay [11] the test system is E. faecalis ATCC 29212. Briefly: MIC/MBC (CLSI broth microdilution) against E. faecalis ATCC 29212. Particulars: Enterococcus faecalis, ATCC29212, E. faecalis ATCC 29212. The format is cell-based. The procedure: as §1
In assay [12] the test system is VRE. faecalisATCC 51575. Briefly: MIC/MBC (CLSI broth microdilution) against VRE faecalis ATCC 51575. The format is cell-based. Particulars: Enterococcus, VRE faecalis ATCC 51575. Here is the method:
as §1

Assay [13] deals with N. gonorrhoeae 165. Briefly: MIC/MBC against N. gonorrhoeae clinical isolate 165. It counts as cell-based. The note with it: Neisseria gonorrhoeae. Here is the method: as §2
Assay [14] has as its system tested bacterial strains (Table 3). Briefly: MBC versus MIC against the panel of Gram-positive and Gram-negative pathogens. The format is cell-based. Particulars: MBCs more than three-fold higher than MICs, strains of Table 3. Here is the method:
While the focus of these new N-(1,3,4-oxadiazol-2-yl)benzamides is towards N. gonorrhoeae, we proceeded to test their activity against other Gram-positive and Gram-negative pathogens. Intriguingly, HSGN-235, HSGN-237, and HSGN-238 had potent activity against the tested Gram-positive bacterial pathogens. For instance, all three compounds had potent activity against the staphylococcal strains, with MICs ranging from 0.25 to 1 µg/mL (Table 3). Furthermore, HSGN-235, HSGN-237, and HSGN-238 maintained potent activity against clinically relevant Gram-positive bacterial pathogens such as vancomycin-resistant enterococci (VRE) and Listeria monocytogenes (Table 3). Additionally, we moved to test if HSGN-235, HSGN-237, and HSGN-238 were active against other Gram-negative bacterial pathogens. […] This lack of activity against Gram-negative bacteria appears to be due to HSGN-235, HSGN-237, and HSGN-238 being a substrate for efflux.
The minimum inhibitory concentrations (MICs) of the tested compounds and control drugs, linezolid, vancomycin, and gentamicin, were determined using the broth microdilution method according to the guidelines outlined by the Clinical and Laboratory Standards Institute (CLSI) against clinically relevant bacterial (Staphylococcus aureus, MRSA, Escherichia coli, Enterococcus faecalis and Enterococcus faecium strains. S. aureus, MRSA, E. coli, Enterococcus faecalis and Enterococcus faecium were grown aerobically overnight on tryptone soy agar (TSA) plates at 37° C. Afterwards, a bacterial solution equivalent to 0.5 McFarland standard was prepared and diluted in cation-adjusted Mueller–Hinton broth (CAMHB) (for S. aureus, MRSA, and E. coli) to achieve a bacterial concentration of about 5 × 10^5 CFU/mL. Enterococcus faecalis and Enterococcus faecium 0.5 McFarland standard solution was diluted in tryptone soy broth (TSB) to achieve a bacterial concentration of about 5 × 10^5 CFU/mL. Compounds and control drugs were added in the first row of 96-well plates and serially diluted with the corresponding media containing bacteria. […]

In assay [15] the test system is N. gonorrhoeae WHO L. Briefly: MIC/MBC against N. gonorrhoeae WHO L reference strain. It counts as cell-based. The note with it: Neisseria gonorrhoeae. The procedure:
as §2

For assay [16], the system named is N. gonorrhoeae strain 181. Briefly: MIC by broth microdilution against N. gonorrhoeae strain 181. The note with it: N. gonorrhoeae strain 181. It counts as cell-based, Neisseria gonorrhoeae. The procedure: as §2
Assay [17] has as its system L. monocytogenes ATCC 19115. Briefly: MIC/MBC (CLSI broth microdilution) against L. monocytogenes ATCC 19115. The format is cell-based. Particulars: Listeria monocytogenes, ATCC19115, L. monocytogenes ATCC 19115.
Assay [18] deals with MRSA USA300. Briefly: MIC/MBC (CLSI broth microdilution) against MRSA USA300. It counts as cell-based, methicillin-resistant Staphylococcus aureus. The note with it: Staphylococcus aureus, MRSA USA300. Here is the method: as §1
Assay [19] concerns N. gonorrhoeae 197. Briefly: MIC/MBC against N. gonorrhoeae clinical isolate 197. Particulars: Neisseria gonorrhoeae. The format is cell-based. Here is the method:
as §2

[20] abbreviates: Escherichia coli, read-out: MIC.

`CNC(C)C1CCC(N)C(OC2C(N)CC(N)C(OC3OCC(C)(O)C(NC)C3O)C2O)O1` (centres unmarked) [Gentamicin, gentamicin, reference compound]: the MBC in [1] (Escherichia coli) and in assay [2] was 0.25 µg/mL (≈ 0.523 µM) each time. In addition, the MIC in assay [1] (setting [20]) and in [2] was 0.25 µg/mL (≈ 0.523 µM) throughout.
For `O=C(Nc1nnc(-c2ccc(C(F)(F)F)cc2)o1)c1ccc(OC(F)(F)F)c(F)c1` [HSGN-235, 3-Fluoro-4-(trifluoromethoxy)-N-(5-(4-(trifluoromethyl)phenyl)-1,3,4-oxadiazol-2-yl)benzamide], the MBC is above 64 µg/mL in assay [3] (read-out: MBC); 1 µg/mL (≈ 2.3 µM) in assay [4]; 2 µg/mL (≈ 4.6 µM) in assay [6]; 32 µg/mL (≈ 73.5 µM) in assay [7] (read-out: MBC); 64 µg/mL (≈ 147 µM) in assay [9] (read-out: MBC); 2 µg/mL (≈ 4.6 µM) in assay [10]. Also, the MBC in assay [1] (Escherichia coli) was above 8 µg/mL; in assay [11] (read-out: MBC), 32 µg/mL (≈ 73.5 µM); in assay [12] (read-out: MBC), above 64 µg/mL; in [13], 2 µg/mL (≈ 4.6 µM); in assay [2], above 64 µg/mL; in assay [15], 2 µg/mL (≈ 4.6 µM). Further, the MBC in assay [17] (read-out: MBC) was 64 µg/mL (≈ 147 µM); in [18] (read-out: MBC), 64 µg/mL (≈ 147 µM); in assay [19], 2 µg/mL (≈ 4.6 µM). Further, the MIC came out at 1 µg/mL (≈ 2.3 µM) in [3] (read-out: MIC); 1 µg/mL (≈ 2.3 µM) in [4]; 2 µg/mL (≈ 4.6 µM) in [6]; 1 µg/mL (≈ 2.3 µM) in assay [7] (read-out: MIC); 4 µg/mL in assay [8] (5% FBS added to the media); 8 µg/mL in assay [8] (10% FBS added to the media). The MIC in [9] (read-out: MIC) was 1 µg/mL (≈ 2.3 µM); in assay [10] it was 2 µg/mL (≈ 4.6 µM); in assay [1] it was above 8 µg/mL; in assay [1] (setting [20]) it was above 8 µg/mL; in assay [11] (read-out: MIC), 4 µg/mL (≈ 9.19 µM); in assay [12] (read-out: MIC) it was 2 µg/mL (≈ 4.6 µM). In addition, the MIC in [13] was 2 µg/mL (≈ 4.6 µM); in assay [2] it was 4 µg/mL (≈ 9.19 µM); in assay [15], 1 µg/mL (≈ 2.3 µM); in assay [16], “moderate activity”; in assay [16] (Neisseria gonorrhoeae, read-out: MIC), 16 µg/mL (≈ 36.8 µM); in assay [17] (read-out: MIC), 1 µg/mL (≈ 2.3 µM). The MIC came out at 0.5 µg/mL (≈ 1.15 µM) in assay [18] (read-out: MIC) and 1 µg/mL (≈ 2.3 µM) in assay [19]. Further, the “type of activity from MBC versus MIC” value was “bactericidal activity” in assay [5] and “bacteriostatic agents” in assay [14].

The term MBC denotes the smallest concentration meeting the test's criterion for killing. As a reminder, the MIC is the smallest concentration in the dilution series that meets the test's criterion for growth inhibition.
